For assay [1], the system named is EphA3/HEK 293 cells. The experiment in a line: Biochemical demonstration of ephrin cleavage (Western blot). The format is cell-based, human. The conditions noted are these: cells stimulated with clustered ephrin-A5 Fc. The method, then:
(§1) FIG. 6. Eph/ephrin mediated cell-cell repulsion, but not adhesion leads to ephrinA5 cleavage by a metalloprotease. • (A) Alexa ephrinA5-Fc (I, III) or Alexa EphA1 Fc (II) control proteins, conjugated onto protein A-coated Dynabeads were added to cultures of EphA3/HEK 293 cells (I, II) or LK63 cells (III). Cleavage and internalisation of the fluorescent proteins was monitored by confocal microscopy. Selected images of confocal time-lapse experiments (1 frame/min) are shown. Alexa 546 fluorescence is represented in white and outlines cells in panels I, while the cells in panels II, III appear dark-grey or black. • (B) Prior to stimulation (30 min) with Alexa ephrinA5-Fc coated beads (I, II) or with Alexa Fc control beads (III), parallel cultures of EphA3/293 cells were treated for 4 h with 5 mM 1′,10′-O-Phenanthroline (II) or left untreated (I, III). […] Using an EphA3-Fc construct, ephrin-A5 was immuno precipitated from lysates of EphA3/HEK 293 cells or LK63 cells, which had been treated for indicated times with 7.5 ì g/ml of pre-clustered (+X-lnk) or non-clustered (−X-lnk) ephrin-A5 Fc, and analysed for ephrin cleavage by Western blot with anti-ephrinA5 antibody. To assess cleavage by metalloproteases, parallel cultures were treated with 1′,10′-O-phenanthroline (+OPN) or left untreated. […]
Background: In western blotting, separated proteins are transferred to a membrane and probed.

The test system of assay [2] is EphA3/HEK 293 cells. As to the kind of experiment: Cleavage and internalisation of Alexa-labelled protein from protein A Dynabeads. The format is cell-based, human. As to conditions: 5 mM, 4 h prior to bead addition. As to the method: as §1, with “antibody.” for “antibody. To assess cleavage by metalloproteases, parallel cultures were treated with 1′,10′-O-phenanthroline (+OPN) or left untreated.”
Eph/ephrin stimulation was analysed in-situ by time-lapse confocal microscopy and immunocytochemistry as described (Lawrenson et al., 2002). […]

The test system of assay [3] is EphA3/A02 malignant melanoma cells. As to the kind of experiment: Phosphatase inhibition, anti-EphA3 IP / anti-phosphotyrosine western blot. Type of assay: cell-based. As to conditions: increasing amounts. As to the method:
(§2) FIG. 8. Phosphatase inhibition triggers EphA3 phosphorylation in LK63 cells • (A) Anti-EphA3 immunoprecipitates from TritonX100 lysates of EphA3/HEK 293, EphA3/AO2 melanoma cells and LK63 leukaemia cells were treated with either crosslinked ephrin-A5 or increasing concentrations of sodium pervanadate as indicated, and analysed by anti-phosphotyrosine western blot. • (B) Anti-EphA3 immunoprecipitates from TritonX100 lysates of vanadate or hydrogen peroxide-treated EphA3/HEK 293 (left panel) and EphA3/AO2 melanoma cells(right panel) were analysed as described in (A).

In assay [4] the test system is EphA3/HEK 293 cells. The description is as above. The format is cell-based, human. The conditions noted are these: increasing amounts. The method, then:
as §2

The subject of assay [5] is HEK293 cells expressing 3YF EphA3GFP. The experiment in a line: FLIM/FRET of EphA3 phosphorylation after phosphatase inhibition. Type of assay: cell-based, human. The conditions noted are these: 30 min, high concentrations. The method, then: (§3) FIG. 7. Pervanadate-induced Eph receptor phosphorylation HEK293 cells, expressing w/t EphA3GFP (A) or 3YF EphA3GFP (B) were incubated with pervanadate (30 min) at indicated concentrations. Fixed cells were examined for FRET as described above. Left, GFP-fluorescence; right, GFP fluorescence lifetime phase maps. Tabulated colour codes indicate GFP lifetimes in ns.
(§4) GFP EphA3 (w/t or mutant) expressing cells were stimulated, fixed, permeabilised and stained with Cy3-conjugated anti phosphotyrosine monoclonal antibody PY72 prior to mounting onto glass slides using Mowiol (Calbiochem). Fluorescence lifetime imaging microscopy (FLIM) sequences were obtained at 80 MHz with an Olympus IX70 microscope (100/1.4 NA oil immersion lens) and analysed as described (Reynolds, Tischer et al. 2003). A 476-nm argon laser line and narrow-band emission filter (HQ510/20; Chroma) were used for GFP, a 100-W mercury arc lamp with high Q Cy3 filter set (excite, HQ545/30; dicroic, Q580LP; emitter, HQ610/75) for Cy3 and Alexa 546. GFP Fluorescence was detected with a dichroic beamsplitter (Q495 LP; Chroma Technology, Brattleboro, Vt.) and narrow-band emission filter. Stimulated FRET was measured in live 293 cells between transiently expressed ephrin-A2GFP and Alexa546 EphA3-Fc.

Assay [6] has as its system HEK293 cells expressing w/t EphA3GFP. The description is as above. The format is cell-based, human. The conditions noted are these: 30 min, increasing concentrations. As to the method: as §3, §4
The next assay deals with LK63 cells. As to the kind of experiment: Cell morphology on ephrinA5-Fc coated glass coverslips (rhodamin-phalloidin). Type of assay: cell-based, human. The conditions noted are these: 4 h. The method, then: FIG. 1. Surface-bound ephrinA5 causes either cell repulsion or cell adhesion of EphA3-positive tumour cells. • (A) EphA3-positive LK63 human pre-B leukemia cells and LiBr melanoma cells were plated onto glass coverslips coated with ephrinA5-Fc (ephrin, 10 μg/ml) or fibronectin (FN, 10 μg/ml). After 4h the cytoskeleton of adherent, fixed cells was stained with rhodamin-phalloidin. Pictures of representative fluorescence images are shown; the second column represents magnified sections of the first. Scale bar: 20 ì m. • (B) LK63 adhesion and LiBr de-adhesion to surface-bound ephrinA5 are dose-dependent. […] After 4-hour incubation, adherent cells, withstanding rigorous washing, were quantitated by XTT assay (A492 absorbance). Cell attachment is expressed as a percentage (mean, S.E. from three independent assays) relative to wells containing most adherent cells; ( ), LK63 and ( ), LiBr cells and ( ), LK63, ( ), LiBr cells with ephrin inhibition (+inh.). • (C) LiBr melanoma cells in matrigel-coated Basement Membrane migration chambers (Becton Dickinson, 5×10^4/well) were exposed to chemoattractant, 3T3 conditioned media (cond. media) or 1.5 ì g/ml pre-clustered ephrin-A5 Fc in the bottom chamber, or with 1.5 ì g/mil pre-clustered ephrin-A5 Fc placed together with cells into the top chamber. […]

The test system of a further assay is LK63 leukaemia cells. As to the kind of experiment: Phosphatase inhibition, anti-EphA3 IP / anti-phosphotyrosine western blot. The format is cell-based, human. As to conditions: highest concentration tested (1 mM). As to the method:
as §2

On to `c1cnc2c(c1)ccc1cccnc12` [1′,10′-O-Phenanthroline], for which, in the assay with EphA3/HEK 293 cells [1], the “effect on ephrin cleavage (anti-ephrinA5 Western blot)” value is “significantly-reduced ephrin cleavage”. Further, in the assay with EphA3/HEK 293 cells [2], the “effect on ephrin cleavage and internalisation from Alexa ephrin-A5-Fc beads” value is “completely abrogated ephrin cleavage and internalisation”.

As to `OO` [H2O2, hydrogen peroxide], the EphA3 phosphorylation entry (in assay [3]; in the assay with EphA3/HEK 293 cells [4]) was “dose dependent increase in EphA3 phosphorylation” throughout.

Regarding sodium-pervanadate, the EphA3 phosphorylation entry (in assay [3]; with EphA3/HEK 293 cells [4]) was “dose dependent increase in EphA3 phosphorylation” throughout. Also, the “GFP fluorescent lifetime (receptor phosphorylation)” value was “retained their GFP lifetime” in assay [5] and “dramatic dose-dependent decrease in the GFP fluorescent lifetime” in assay [6]. Besides, the “LK63 morphology on ephrin-coated coverslips under phosphatase inhibition” value in the assay on LK63 cells was “lose their characteristic extensions and appear rounded”. Moreover, the “EphA3 phosphorylation compared with EphA3/HEK 293 and EphA3/A02 cells” value in the assay with LK63 leukaemia cells was “significantly lower”.
